# Laboratory results: article PMC8162404, “Proteomimetic surface fragments distinguish targets by function” (Chemical Science, 2020)
# Assays:
# S100B [1] = molecular target: T1, S100B (Homo sapiens, UniProt P04271); test: Competition pull-down with native ligand RSK1 (689–735); format: binding; conditions: H14 library; competitor peptide 200 µM; read-out: Surface mapping KD (apparent), competition
# T1 construct: made in house; host or cells: Escherichia coli BL21(DE3)
# T1 sequence (P04271 1-92): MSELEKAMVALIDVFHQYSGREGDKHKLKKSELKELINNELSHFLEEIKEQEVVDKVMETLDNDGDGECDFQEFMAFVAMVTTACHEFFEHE
# CaM [2] = molecular target: T2, CaM (Bos taurus, UniProt P62157); test: Pull-down assay with immobilized protein and LSM libraries; format: binding, bovine; conditions: H14 library; 1:2 stoichiometry assumed; read-out: Surface mapping KD (apparent)
# T2 construct: made in house; host or cells: E. coli BL21 (DE3)
# How it was run: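 His-tagged protein immobilized on Co-NTA resin, equilibrated 30 min at room temperature with LSM sublibraries (64 members, […]), equimolar protein to total probe. CaM buffer: 20 mM HEPES pH 7.4, 150 mM NaCl, 5 mM CaCl2. Bound fractions from HPLC-MS loss of unbound probe versus protein-free resin control; Kd derived.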
# S100B [3] = molecular target: T1, S100B; test: as above; format: binding; conditions: H14 library; 1:1 binding assumed; read-out: Surface mapping KD (apparent)
# How it was run: (§1)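 Buffers were HEPES pH 7.4 with 150 mM NaCl, plus 1 mM TCEP and 1 mM CaCl2 (50 mM HEPES) for S100A4 and S100B, 1 mM TCEP for Gal-1, and no additive for RecQ-WH. Immobilized protein at 64 µM was equilibrated 30 min with the LSM sublibrary, and unbound probes were measured by LC-MS.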
# S100A4 = molecular target: T3, S100A4 (Homo sapiens, UniProt P26447); test: as above; format: binding; conditions: H14 library; 1:1 binding assumed; read-out: Surface mapping KD (apparent)
# T3 construct: made in house; host or cells: Escherichia coli BL21(DE3)
# How it was run: as §1
# CaM [4] = molecular target: T2, CaM; test: Competition pull-down with native ligand TRPV1-Ct15; format: binding, bovine; conditions: H14 library; competitor peptide 200 µM; read-out: Surface mapping KD (apparent), competition
# Gal-1 [5] = molecular target: T4, Gal-1 (Homo sapiens, UniProt P09382); test: Competition pull-down with lactose; format: binding; conditions: H14 library; lactose 10 mM; read-out: Surface mapping KD (apparent), competition
# T4 construct: made in house; host or cells: E. coli BL21(DE3)
# How it was run: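 His6-tagged proteins immobilized on Co-NTA resin at 64 µM final with 64-member LSM foldamer sublibraries (1 M each, as printed) in pH 7.4 HEPES/NaCl buffers (Ca2+/TCEP per target), 30 min RT; competitor peptides 200 µM final, lactose 10 mM for Gal-1. Bound fractions from LC-MS loss vs protein-free resin; KD assuming 1:1 binding.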
# Gal-1 [6] = molecular target: T4, Gal-1; test: Pull-down assay with immobilized protein and LSM libraries; format: binding; conditions: H14 library; 1:1 binding assumed; read-out: Surface mapping KD (apparent)
# How it was run: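 His-tagged protein immobilized on Co-NTA resin (64 µM) in 20 mM HEPES pH 7.4, 150 mM NaCl, equilibrated 30 min at room temperature with foldamer LSM sublibraries at equimolar total concentration. Unbound fractions quantified by HPLC-MS versus protein-free resin control; apparent KD assumes 1:1 binding.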
# T4 sequence (P09382 whole entry): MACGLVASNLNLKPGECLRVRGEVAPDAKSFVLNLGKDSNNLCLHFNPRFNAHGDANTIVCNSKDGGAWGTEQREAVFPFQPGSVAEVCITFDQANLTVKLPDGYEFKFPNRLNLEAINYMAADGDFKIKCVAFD
# T3 sequence (P26447 whole entry): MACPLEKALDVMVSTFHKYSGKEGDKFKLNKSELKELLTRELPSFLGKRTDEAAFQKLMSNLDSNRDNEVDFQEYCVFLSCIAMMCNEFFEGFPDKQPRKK
Kd (S100B [1]),SMILES,Kd (CaM [2]),Kd (S100B [3]),Kd (S100A4),Kd (CaM [4]),Kd (Gal-1 [5]),Kd (Gal-1 [6])
141 µM,CSCC[C@@H](CC(=O)N[C@H]1CCCC[C@@H]1C(N)=O)NC(=O)[C@H]1CCCC[C@@H]1NC(=O)[C@H]1CCCC[C@@H]1NC(=O)C[C@H](CCC(=O)O)NC(=O)[C@H]1CCCC[C@@H]1N [H14 EM],–,–,–,–,–,–
494 µM,NC(=O)CC[C@@H](CC(=O)N[C@H]1CCCC[C@@H]1C(N)=O)NC(=O)[C@H]1CCCC[C@@H]1NC(=O)[C@H]1CCCC[C@@H]1NC(=O)C[C@H](Cc1ccccc1)NC(=O)[C@H]1CCCC[C@@H]1N [H14 FQ],49 µM,433 µM,377 µM,–,–,–
216 µM,CC[C@H](C)[C@@H](CC(=O)N[C@H]1CCCC[C@@H]1C(=O)N[C@H]1CCCC[C@@H]1C(=O)N[C@@H](CCCCN)CC(=O)N[C@H]1CCCC[C@@H]1C(N)=O)NC(=O)[C@H]1CCCC[C@@H]1N [H14 IK],31 µM,84 µM,307 µM,–,–,–
325 µM,CC[C@H](C)[C@@H](CC(=O)N[C@H]1CCCC[C@@H]1C(=O)N[C@H]1CCCC[C@@H]1C(=O)N[C@@H](CC(N)=O)CC(=O)N[C@H]1CCCC[C@@H]1C(N)=O)NC(=O)[C@H]1CCCC[C@@H]1N [H14 IN],281 µM,–,321 µM,–,–,–
387 µM,CC[C@H](C)[C@@H](CC(=O)N[C@H]1CCCC[C@@H]1C(=O)N[C@H]1CCCC[C@@H]1C(=O)N[C@@H](CCC(N)=O)CC(=O)N[C@H]1CCCC[C@@H]1C(N)=O)NC(=O)[C@H]1CCCC[C@@H]1N [H14 IQ],321 µM,497 µM,319 µM,–,–,–
–,CC(C)[C@@H](CC(=O)N[C@H]1CCCC[C@@H]1C(N)=O)NC(=O)[C@H]1CCCC[C@@H]1NC(=O)[C@H]1CCCC[C@@H]1NC(=O)C[C@H](CC(N)=O)NC(=O)[C@H]1CCCC[C@@H]1N [H14 NV],115 µM,–,395 µM,261 µM,378 µM,349 µM
–,CC[C@H](C)[C@@H](CC(=O)N[C@H]1CCCC[C@@H]1C(N)=O)NC(=O)[C@H]1CCCC[C@@H]1NC(=O)[C@H]1CCCC[C@@H]1NC(=O)C[C@H](CCC(N)=O)NC(=O)[C@H]1CCCC[C@@H]1N [H14 QI],82 µM,–,256 µM,241 µM,486 µM,456 µM
–,NCCCC[C@@H](CC(=O)N[C@H]1CCCC[C@@H]1C(N)=O)NC(=O)[C@H]1CCCC[C@@H]1NC(=O)[C@H]1CCCC[C@@H]1NC(=O)C[C@H](CCC(N)=O)NC(=O)[C@H]1CCCC[C@@H]1N [H14 QK],96 µM,81 µM,382 µM,208 µM,146 µM,158 µM
–,CC(C)C[C@@H](CC(=O)N[C@H]1CCCC[C@@H]1C(N)=O)NC(=O)[C@H]1CCCC[C@@H]1NC(=O)[C@H]1CCCC[C@@H]1NC(=O)C[C@H](CCC(N)=O)NC(=O)[C@H]1CCCC[C@@H]1N [H14 QL],87 µM,–,256 µM,241 µM,458 µM,457 µM
–,CSCC[C@@H](CC(=O)N[C@H]1CCCC[C@@H]1C(N)=O)NC(=O)[C@H]1CCCC[C@@H]1NC(=O)[C@H]1CCCC[C@@H]1NC(=O)C[C@H](CCC(N)=O)NC(=O)[C@H]1CCCC[C@@H]1N [H14 QM],51 µM,–,448 µM,317 µM,406 µM,364 µM
–,N=C(N)NCCC[C@@H](CC(=O)N[C@H]1CCCC[C@@H]1C(N)=O)NC(=O)[C@H]1CCCC[C@@H]1NC(=O)[C@H]1CCCC[C@@H]1NC(=O)C[C@H](CCC(N)=O)NC(=O)[C@H]1CCCC[C@@H]1N [H14 QR],43 µM,107 µM,344 µM,291 µM,272 µM,71 µM
–,CC(C)[C@@H](CC(=O)N[C@H]1CCCC[C@@H]1C(N)=O)NC(=O)[C@H]1CCCC[C@@H]1NC(=O)[C@H]1CCCC[C@@H]1NC(=O)C[C@H](CCCNC(=N)N)NC(=O)[C@H]1CCCC[C@@H]1N [H14 RV],26 µM,63 µM,72 µM,219 µM,418 µM,–
–,CC[C@H](C)[C@@H](CC(=O)N[C@H]1CCCC[C@@H]1C(N)=O)NC(=O)[C@H]1CCCC[C@@H]1NC(=O)[C@H]1CCCC[C@@H]1NC(=O)C[C@H](CO)NC(=O)[C@H]1CCCC[C@@H]1N [H14 SI],75 µM,380 µM,19 µM,471 µM,478 µM,336 µM
–,CC(C)C[C@@H](CC(=O)N[C@H]1CCCC[C@@H]1C(N)=O)NC(=O)[C@H]1CCCC[C@@H]1NC(=O)[C@H]1CCCC[C@@H]1NC(=O)C[C@H](CO)NC(=O)[C@H]1CCCC[C@@H]1N [H14 SL],64 µM,380 µM,19 µM,436 µM,325 µM,251 µM
–,CSCC[C@@H](CC(=O)N[C@H]1CCCC[C@@H]1C(N)=O)NC(=O)[C@H]1CCCC[C@@H]1NC(=O)[C@H]1CCCC[C@@H]1NC(=O)C[C@H](CO)NC(=O)[C@H]1CCCC[C@@H]1N [H14 SM],43 µM,–,26 µM,210 µM,352 µM,356 µM
–,N=C(N)NCCC[C@@H](CC(=O)N[C@H]1CCCC[C@@H]1C(N)=O)NC(=O)[C@H]1CCCC[C@@H]1NC(=O)[C@H]1CCCC[C@@H]1NC(=O)C[C@H](CO)NC(=O)[C@H]1CCCC[C@@H]1N [H14 SR],75 µM,76 µM,188 µM,174 µM,349 µM,156 µM
–,CC(C)[C@@H](CC(=O)N[C@H]1CCCC[C@@H]1C(N)=O)NC(=O)[C@H]1CCCC[C@@H]1NC(=O)[C@H]1CCCC[C@@H]1NC(=O)C[C@H](CO)NC(=O)[C@H]1CCCC[C@@H]1N [H14 SV],101 µM,–,34 µM,398 µM,476 µM,221 µM
–,C[C@@H](CC(=O)N[C@H]1CCCC[C@@H]1C(N)=O)NC(=O)[C@H]1CCCC[C@@H]1NC(=O)[C@H]1CCCC[C@@H]1NC(=O)C[C@@H](NC(=O)[C@H]1CCCC[C@@H]1N)[C@@H](C)O [H14 TA],244 µM,–,338 µM,398 µM,426 µM,425 µM
–,C[C@@H](O)[C@@H](CC(=O)N[C@H]1CCCC[C@@H]1C(=O)N[C@H]1CCCC[C@@H]1C(=O)N[C@@H](CCCNC(=N)N)CC(=O)N[C@H]1CCCC[C@@H]1C(N)=O)NC(=O)[C@H]1CCCC[C@@H]1N [H14 TR],75 µM,94 µM,407 µM,338 µM,432 µM,372 µM
369 µM,CC(C)[C@@H](CC(=O)N[C@H]1CCCC[C@@H]1C(=O)N[C@H]1CCCC[C@@H]1C(=O)N[C@@H](CCC(=O)O)CC(=O)N[C@H]1CCCC[C@@H]1C(N)=O)NC(=O)[C@H]1CCCC[C@@H]1N [H14 VE],–,–,–,–,–,313 µM
390 µM,CC(C)[C@@H](CC(=O)N[C@H]1CCCC[C@@H]1C(=O)N[C@H]1CCCC[C@@H]1C(=O)N[C@@H](CCCCN)CC(=O)N[C@H]1CCCC[C@@H]1C(N)=O)NC(=O)[C@H]1CCCC[C@@H]1N [H14 VK],67 µM,138 µM,–,–,–,296 µM
271 µM,CC(C)[C@@H](CC(=O)N[C@H]1CCCC[C@@H]1C(=O)N[C@H]1CCCC[C@@H]1C(=O)N[C@@H](CC(N)=O)CC(=O)N[C@H]1CCCC[C@@H]1C(N)=O)NC(=O)[C@H]1CCCC[C@@H]1N [H14 VN],–,–,–,–,–,302 µM
339 µM,CC(C)[C@@H](CC(=O)N[C@H]1CCCC[C@@H]1C(=O)N[C@H]1CCCC[C@@H]1C(=O)N[C@@H](CCC(N)=O)CC(=O)N[C@H]1CCCC[C@@H]1C(N)=O)NC(=O)[C@H]1CCCC[C@@H]1N [H14 VQ],–,–,–,–,–,161 µM
460 µM,CC(C)[C@@H](CC(=O)N[C@H]1CCCC[C@@H]1C(=O)N[C@H]1CCCC[C@@H]1C(=O)N[C@@H](CO)CC(=O)N[C@H]1CCCC[C@@H]1C(N)=O)NC(=O)[C@H]1CCCC[C@@H]1N [H14 VS],264 µM,–,263 µM,–,–,190 µM
399 µM,NC(=O)[C@H]1CCCC[C@@H]1NC(=O)C[C@H](CO)NC(=O)[C@H]1CCCC[C@@H]1NC(=O)[C@H]1CCCC[C@@H]1NC(=O)C[C@H](Cc1ccc(O)cc1)NC(=O)[C@H]1CCCC[C@@H]1N [H14 YS],67 µM,–,346 µM,–,–,336 µM
